The text below walks through data of patent US10532995B2, “Substituted pyrazole compounds as serine protease inhibitors” (VERSEON CORPORATION, priority 2015, dated 2020).

Where a name gives a salt, the structure may show the parent alone. Some results are limits rather than exact numbers.

This assay addresses T1, Human thrombin (Homo sapiens, UniProt P00734).
T1 construct: purchased Haematologic Technologies Inc
In words: Thrombin protease activity inhibition, chromogenic substrate S-2238. Format: biochemical. The note with it: 3 nM thrombin, 125 μM S-2238, 10 min pre-incubation, RT. In outline:
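Ten-point, three-fold serial dilutions of compound tested against 3 nM enzyme at RT in Tris buffer (0.05 M, pH 7.4) with 0.015 M NaCl and 0.01% PEG-8000.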

By IC50 is commonly meant the midpoint of a concentration-inhibition curve. `CN(C)C(=O)N1CCC(c2cc(NCc3ccc(Cl)s3)[nH]n2)CC1` [Entry 137, 4-(5-[(5-chlorothiophen-2-yl)methyl]amino-1H-pyrazol-3-yl)-N,N-dimethylpiperidine-1-carboxamide] had an IC50 greater than 100000 nM.

Regarding `C=CCOC(=O)N1CCN(C(=O)N2CCOCC2)CC1c1cc(NCc2ccc(Cl)s2)n(C(=O)c2cscn2)n1` (stereo not shown) [Entry 240, prop-2-en-1-yl 2-(5-[(5-chlorothiophen-2-yl)methyl]amino-1-(1,3-thiazole-4-carbonyl)-1H-pyrazol-3-yl)-4-(morpholine-4-carbonyl)piperazine-1-carboxylate], the IC50 was in the range of 100 to 1000 nM. The value for `CC(C)(C)OC(=O)N1CCCC1(C)c1cc(NCc2ccc(Cl)s2)n(C(=O)c2ccsc2)n1` (stereo not shown) [Entry 276, tert-butyl 2-(5-[(5-chlorothiophen-2-yl)methyl]amino-1-(thiophene-3-carbonyl)-1H-pyrazol-3-yl)-2-methylpyrrolidine-1-carboxylate] was greater than 100000 nM.

Consider `CC(C)(C)OC(=O)N1CCCC(C)(c2cc(NCc3ccc(Cl)s3)n(C(=O)C(C)(C)C)n2)C1` (stereo not shown) [Entry 278, tert-butyl 3-(5-[(5-chlorothiophen-2-yl)methyl]amino-1-(2,2-dimethylpropanoyl)-1H-pyrazol-3-yl)-3-methylpiperidine-1-carboxylate], for which the IC50 was less than 100 nM. The value for `Cc1cccc(CN2CCC(c3cc(NCc4ccc(Cl)s4)[nH]n3)CC2)n1` [Entry 220, N-[(5-chlorothiophen-2-yl)methyl]-3-1-[(6-methylpyridin-2-yl)methyl]piperidin-4-yl-1H-pyrazol-5-amine] was greater than 100000 nM.

`O=C(O)CN1CCC(c2cc(NCc3ccc(Cl)s3)[nH]n2)CC1` [Entry 112, 2-[4-(5-[(5-chlorothiophen-2-yl)methyl]amino-1H-pyrazol-3-yl)piperidin-1-yl]acetic acid] returned an IC50 greater than 100000 nM. `O=C(CN1CCOCC1)N1CCCC1c1cc(NCc2ccc(Cl)s2)[nH]n1` (stereo not shown) [Entry 93, 1-[2-(5-[(5-chlorothiophen-2-yl)methyl]amino-1H-pyrazol-3-yl)pyrrolidin-1-yl]-2-(morpholin-4-yl)ethan-1-one]: the IC50 is greater than 100000 nM. The value for `Clc1ccc(CNc2cc(C3CCCNC3)n[nH]2)s1` (stereo not shown) [Entry 186, N-[(5-chlorothiophen-2-yl)methyl]-3-(piperidin-3-yl)-1H-pyrazol-5-amine] was 1000 to 10000 nM; that for `COc1ccccc1C(=O)n1nc(C2CCN(CC(F)(F)F)CC2)cc1NCc1ccc(Cl)s1` [Entry 160, N-[(5-chlorothiophen-2-yl)methyl]-1-(2-methoxybenzoyl)-3-[1-(2,2,2-trifluoroethyl)piperidin-4-yl]-1H-pyrazol-5-amine] was 1000 to 10000 nM. `CC(C)(C)OC(=O)N1CCC(c2cc(NCc3ccc(Cl)s3)n(C(=O)c3ccsc3)n2)CC1` [Entry 301, tert-butyl 4-(5-[(5-chlorothiophen-2-yl)methyl]amino-1-(thiophene-3-carbonyl)-1H-pyrazol-3-yl)piperidine-1-carboxylate] showed an IC50 of less than 100 nM. The value for `C=CCOC(=O)N1CCN(CC(F)(F)F)CC1c1cc(NCc2ccc(Cl)s2)[nH]n1` (stereo not shown) [Entry 248, prop-2-en-1-yl 2-(5-[(5-chlorothiophen-2-yl)methyl]amino-1H-pyrazol-3-yl)-4-(2,2,2-trifluoroethyl)piperazine-1-carboxylate] was greater than 100000 nM; that for `CC1(C(=O)n2nc(C3CCOCC3)c(F)c2NCc2ccc(Cl)s2)CCOCC1` [Entry 229, N-[(5-chlorothiophen-2-yl)methyl]-4-fluoro-1-(4-methyloxane-4-carbonyl)-3-(oxan-4-yl)-1H-pyrazol-5-amine] was less than 100 nM.

`O=C(N1CCOCC1)N1CCC(c2cc(NCc3ccc(Cl)s3)n(C(=O)N3CCOCC3)n2)CC1` [Entry 168, N-[(5-chlorothiophen-2-yl)methyl]-1-(morpholine-4-carbonyl)-3-[1-(morpholine-4-carbonyl)piperidin-4-yl]-1H-pyrazol-5-amine] yielded an IC50 of 1000 to 10000 nM. The value for `Clc1ccc(CNc2cc(C3CCN(CCc4ccccn4)CC3)n[nH]2)s1` [Entry 224, N-[(5-chlorothiophen-2-yl)methyl]-3-1-[2-(pyridin-2-yl)ethyl]piperidin-4-yl-1H-pyrazol-5-amine] was greater than 100000 nM; that for `Clc1ccc(CNc2cc(C3CCN(Cc4cccnc4)CC3)n[nH]2)s1` [Entry 211, N-[(5-chlorothiophen-2-yl)methyl]-3-[1-(pyridin-3-ylmethyl)piperidin-4-yl]-1H-pyrazol-5-amine] was greater than 100000 nM. The value for `Clc1ccc(CNc2cc(C3CCN(Cc4nnn[nH]4)CC3)n[nH]2)s1` [Entry 195, N-[(5-chlorothiophen-2-yl)methyl]-3-[1-(1H-1,2,3,4-tetrazol-5-ylmethyl)piperidin-4-yl]-1H-pyrazol-5-amine] was 1000 to 10000 nM; that for `CC(C)(C)C(=O)n1nc(C2CCN(C(=O)N3CCOCC3)CC2)c(C#N)c1NCc1ccc(Cl)s1` [Entry 140, 5-[(5-chlorothiophen-2-yl)methyl]amino-1-(2,2-dimethylpropanoyl)-3-[1-(morpholine-4-carbonyl)piperidin-4-yl]-1H-pyrazole-4-carbonitrile] was less than 100 nM. `CC(C)(C)OC(=O)N1CCC(c2cc(NCc3ccc(Cl)s3)n(C(=O)C(C)(C)CO)n2)CC1` [Entry 297, tert-butyl 4-(5-[(5-chlorothiophen-2-yl)methyl]amino-1-(3-hydroxy-2,2-dimethylpropanoyl)-1H-pyrazol-3-yl)piperidine-1-carboxylate] registered an IC50 of less than 100 nM. The value for `C=CCOC(=O)N1C2CCC1CC(c1cc(NCc3ccc(Cl)s3)[nH]n1)C2` (stereo not shown) [Entry 257, prop-2-en-1-yl 3-(5-[(5-chlorothiophen-2-yl)methyl]amino-1H-pyrazol-3-yl)-8-azabicyclo[3.2.1]octane-8-carboxylate] was 10000 to 100000 nM. For the molecule `Clc1ccc(CNc2cc(C3CCN(Cc4ccccc4)CC3)n[nH]2)s1` [Entry 113, 3-(1-benzylpiperidin-4-yl)-N-[(5-chlorothiophen-2-yl)methyl]-1H-pyrazol-5-amine], the IC50 was greater than 100000 nM. The value for `Clc1ccc(CNc2cc(C3CCCN3)n[nH]2)s1` (stereo not shown) [Entry 189, N-[(5-chlorothiophen-2-yl)methyl]-3-(pyrrolidin-2-yl)-1H-pyrazol-5-amine] was greater than 100000 nM; that for `C=CCOC(=O)N1CCCC(c2cc(NCc3ccc(Cl)s3)n(C(=O)C(C)(C)C)n2)CC1` (stereo not shown) [Entry 261, prop-2-en-1-yl 4-(5-[(5-chlorothiophen-2-yl)methyl]amino-1-(2,2-dimethylpropanoyl)-1H-pyrazol-3-yl)azepane-1-carboxylate] was less than 100 nM; that for `C=CCOC(=O)N1CCCC1c1cc(NCc2ccc(Cl)s2)[nH]n1` (stereo not shown) [Entry 253, prop-2-en-1-yl 2-(5-[(5-chlorothiophen-2-yl)methyl]amino-1H-pyrazol-3-yl)pyrrolidine-1-carboxylate] was greater than 100000 nM. The value for `Clc1ccc(CNc2cc(C3CCCNCC3)n[nH]2)s1` (stereo not shown) [Entry 125, 3-(azepan-4-yl)-N-[(5-chlorothiophen-2-yl)methyl]-1H-pyrazol-5-amine] was greater than 100000 nM; that for `CC(C)(C)OC(=O)N1CCCC(c2cc(NCc3ccc(Cl)s3)[nH]n2)C1` (stereo not shown) [Entry 290, tert-butyl 3-(5-[(5-chlorothiophen-2-yl)methyl]amino-1H-pyrazol-3-yl)piperidine-1-carboxylate] was greater than 100000 nM; that for `C=CCOC(=O)N1CCN(C(=O)CN2CCOCC2)CC1c1cc(NCc2ccc(Cl)s2)n(C(=O)c2cscn2)n1` (stereo not shown) [Entry 241, prop-2-en-1-yl 2-(5-[(5-chlorothiophen-2-yl)methyl]amino-1-(1,3-thiazole-4-carbonyl)-1H-pyrazol-3-yl)-4-[2-(morpholin-4-yl)acetyl]piperazine-1-carboxylate] was 100 to 1000 nM. The value for `CN1CCC(C)(C(=O)n2nc(C3CCN(C(=O)N4CCOCC4)CC3)cc2NCc2ccc(Cl)s2)CC1` [Entry 142, N-[(5-chlorothiophen-2-yl)methyl]-1-(1,4-dimethylpiperidine-4-carbonyl)-3-[1-(morpholine-4-carbonyl)piperidin-4-yl]-1H-pyrazol-5-amine; formic acid] was 100 to 1000 nM; that for `O=C(N1CCOCC1)N1CCNC(c2cc(NCc3ccc(Cl)s3)[nH]n2)C1` (stereo not shown) [Entry 212, N-[(5-chlorothiophen-2-yl)methyl]-3-[4-(morpholine-4-carbonyl)piperazin-2-yl]-1H-pyrazol-5-amine hydrochloride] was greater than 100000 nM.

In the case of `CC(C)(C)OC(=O)N1CCCC1c1cc(NCc2ccc(Cl)s2)[nH]n1` (stereo not shown) [Entry 277, tert-butyl 2-(5-[(5-chlorothiophen-2-yl)methyl]amino-1H-pyrazol-3-yl)pyrrolidine-1-carboxylate], the concentration for half-maximal inhibition (IC50) is greater than 100000 nM. The value for `CC1(c2cc(NCc3ccc(Cl)s3)n(C(=O)c3ccsc3)n2)CCCN1` (stereo not shown) [Entry 177, N-[(5-chlorothiophen-2-yl)methyl]-3-(2-methylpyrrolidin-2-yl)-1-(thiophene-3-carbonyl)-1H-pyrazol-5-amine; formic acid] was less than 100 nM.

Turning to `CC1(c2cc(NCc3ccc(Cl)s3)n(C(=O)c3ccsc3)n2)CCCNC1=O` (stereo not shown) [Entry 123, 3-(5-[(5-chlorothiophen-2-yl)methyl]amino-1-(thiophene-3-carbonyl)-1H-pyrazol-3-yl)-3-methylpiperidin-2-one], the IC50 lay within 100 to 1000 nM. The value for `COc1ccccc1C(=O)n1nc(C2CCCN2C(=O)C(C)(C)C)cc1NCc1ccc(Cl)s1` (stereo not shown) [Entry 90, 1-[2-(5-[(5-chlorothiophen-2-yl)methyl]amino-1-(2-methoxybenzoyl)-1H-pyrazol-3-yl)pyrrolidin-1-yl]-2,2-dimethylpropan-1-one] was 100 to 1000 nM; that for `COc1ccccc1C(=O)n1nc(C2CCCN2)cc1NCc1ccc(Cl)s1` (stereo not shown) [Entry 159, N-[(5-chlorothiophen-2-yl)methyl]-1-(2-methoxybenzoyl)-3-(pyrrolidin-2-yl)-1H-pyrazol-5-amine] was 100 to 1000 nM; that for `Clc1ccc(CNc2cc(C3CC4CCC(C3)N4)n[nH]2)s1` (stereo not shown) [Entry 131, 3-8-azabicyclo[3.2.1]octan-3-yl-N-[(5-chlorothiophen-2-yl)methyl]-1H-pyrazol-5-amine] was greater than 100000 nM.
